Experimental data: PubChem BioAssay (NCI)
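Compound exposure: 48 hours, 5 concentrations, 96-well plates. GI50 = concentration required for 50% inhibition of growth. TGI is the concentration that stops growth completely.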

Tests used:
Experiment in all cases: DTP human tumour cell line panel, 48 h
CAKI-1 renal = tested on: CAKI-1 renal
HCT-116 colon = tested on: HCT-116 colon
HOP-62 NSCLC = tested on: HOP-62 NSCLC
NCI-H226 lung = tested on: NCI-H226 lung
NCI-H23 lung = tested on: NCI-H23 lung
NCI-H460 lung = tested on: NCI-H460 lung
SF-295 CNS = tested on: SF-295 CNS
SNB-75 CNS = tested on: SNB-75 CNS
TK-10 renal = tested on: TK-10 renal
CCRF-CEM leukemia = tested on: CCRF-CEM leukemia

Compound	TGI (CAKI-1 renal)	TGI (HCT-116 colon)	TGI (HOP-62 NSCLC)	TGI (NCI-H226 lung)	TGI (NCI-H23 lung)	TGI (NCI-H460 lung)	TGI (SF-295 CNS)	TGI (SNB-75 CNS)	TGI (TK-10 renal)	GI50 (CAKI-1 renal)	TGI (CCRF-CEM leukemia)	GI50 (HOP-62 NSCLC)	GI50 (NCI-H226 lung)	GI50 (NCI-H23 lung)	GI50 (HCT-116 colon)	GI50 (NCI-H460 lung)	GI50 (SF-295 CNS)	GI50 (SNB-75 CNS)	GI50 (TK-10 renal)	GI50 (CCRF-CEM leukemia)
O=C(O)c1ccccc1-c1ccccc1C(=O)Nc1ccc2c(c1)Cc1ccccc1-2	> 100 µM	35.9 µM	> 100 µM	> 100 µM	36.6 µM	38.1 µM	> 100 µM	> 100 µM	> 100 µM											
Cc1cn(C2CC(N=[N+]=[N-])C(CO)O2)c(=O)[nH]c1=O (stereo not drawn)	> 1000 µM	422 µM	> 1000 µM	> 1000 µM	> 1000 µM				> 1000 µM	479 µM	> 1000 µM	> 1000 µM	> 1000 µM	> 1000 µM						
O=S1c2ccccc2N=C(c2ccc3ccccc3c2)CC1c1ccccc1F (stereo not drawn)	> 100 µM		> 100 µM	> 100 µM	> 100 µM	> 100 µM	> 100 µM	80.8 µM	> 100 µM		> 100 µM									
Nc1nc2c(c(=O)[nH]1)N=C(COP(=O)(O)OP(=O)(O)O)CN2	> 100 µM	> 100 µM	> 100 µM	> 100 µM	> 100 µM		> 100 µM	> 100 µM	> 100 µM		> 100 µM									
CN(C(=O)C12C3C4C1C1C2C3C41C(=O)N(C)C(C)(C)C)C(C)(C)C (stereo not drawn)	> 50 µM	> 50 µM	> 50 µM				> 50 µM	> 50 µM			> 50 µM									
O=[N+]([O-])c1ccc(N/N=C/c2ccccc2O)nc1	8.37 µM	> 100 µM	> 100 µM	> 100 µM	> 100 µM	> 100 µM	> 100 µM	> 100 µM	> 100 µM	0.738 µM		4.5 µM	4.6 µM	2.45 µM	0.371 µM	1.02 µM	2.92 µM	10.6 µM	3.43 µM	
CC(C)(C)C1CCP(=O)(c2ccccc2)CC1 (stereo not drawn)		> 100 µM	> 100 µM	> 100 µM	> 100 µM	> 100 µM	> 100 µM	> 100 µM	> 100 µM		> 100 µM									
O=c1[nH]cc(CO)c(=O)[nH]1	> 100 µM	> 100 µM	> 100 µM		> 100 µM	> 100 µM	> 100 µM	> 100 µM	> 100 µM	> 100 µM	> 100 µM	> 100 µM		> 100 µM	> 100 µM	> 100 µM	> 100 µM	> 100 µM	> 100 µM	> 100 µM
c1cc2ccc3cc2cc1CNCCOCCNCc1ccc2ccc(cc2c1)CNCCOCCNC3	> 100 µM	> 100 µM	> 100 µM	> 100 µM	> 100 µM	> 100 µM	> 100 µM		> 100 µM	> 100 µM		> 100 µM	> 100 µM	> 100 µM	> 100 µM	> 100 µM	> 100 µM		> 100 µM	
COc1cc2c(cc1OCc1ccccc1)N=C[C@@H]1C[C@@H](F)CN1C2=O	26.1 µM		2.7 µM	0.447 µM	0.572 µM	7.13 µM	1.85 µM	> 100 µM	4.52 µM	6.69 µM	1.59 µM	0.236 µM	0.197 µM	0.195 µM		1.92 µM	0.678 µM	0.894 µM	1.49 µM	0.355 µM
